In US8148373B2, “Compounds” (AstraZeneca AB, priority 2008, dated 2012):
Structures can show the parent of a compound that is named as a salt.

Key:
[1] = molecular target: T1, Adrenergic β2 (H292 cells) (Homo sapiens, UniProt P07550); experiment: Assay for Adrenergic β2 Mediated cAMP Production (concentration response, AlphaScreen cAMP detection); assay type: cell-based; conditions: for EC50: cAMP production, 60 minutes at room temperature, 300 μM rolipram, read-out: β2 pEC50 (converted); for β2 Intrinsic activity: fraction relative to the maximum activity determined for formoterol
T1 construct: endogenous in cells; host or cells: H292 cells
In short: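 H292 cells plated overnight, pre-treated with rolipram (300 μM final) 10 min, then compound 60 min at room temperature in HBSS/10 mM HEPES pH7.4/5 mM glucose, 1% DMSO. Lysate cAMP read by AlphaScreen against a cAMP standard curve; 4-parameter fit gives pEC50 and intrinsic activity as fraction of formoterol maximum.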

[2] = molecular target: T2, human muscarinic acetylcholine M3 receptor (M3-ACh) (Homo sapiens, UniProt P20309); experiment: Muscarinic 3 Receptor Binding Assay ([3H]NMS competition, SPA); conditions: for IC50: [3H]NMS 0.1 nM, CHO-K1 cell membranes, 16 hours at room temperature, read-out: M3 pIC50 (converted)
T2 construct: expressed in transfected cells; host or cells: CHO-K1 (Chinese Hamster Ovary) cell membranes
In short: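 Competition SPA binding of 0.1 nM [3H]NMS (quarter Kd) to membranes from CHO-K1 cells expressing human M3, in 20 mM HEPES pH 7.4, 5 mM MgCl2, 1% DMSO. Incubated 16 h at room temperature; non-specific binding with 1 µM atropine. pIC50 from 50% reduction of specific binding.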

T1 sequence (P07550 whole entry): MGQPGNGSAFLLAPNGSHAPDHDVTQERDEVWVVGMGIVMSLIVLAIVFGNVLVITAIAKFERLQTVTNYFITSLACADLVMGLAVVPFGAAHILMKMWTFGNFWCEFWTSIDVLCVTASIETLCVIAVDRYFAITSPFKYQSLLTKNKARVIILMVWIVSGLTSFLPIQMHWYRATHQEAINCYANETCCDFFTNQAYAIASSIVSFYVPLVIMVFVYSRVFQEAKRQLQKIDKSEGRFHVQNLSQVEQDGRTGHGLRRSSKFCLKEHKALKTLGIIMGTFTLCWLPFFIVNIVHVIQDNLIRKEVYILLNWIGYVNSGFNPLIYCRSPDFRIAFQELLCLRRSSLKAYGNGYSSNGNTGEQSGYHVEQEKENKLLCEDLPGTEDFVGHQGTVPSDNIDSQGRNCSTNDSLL
T2 sequence (P20309 whole entry): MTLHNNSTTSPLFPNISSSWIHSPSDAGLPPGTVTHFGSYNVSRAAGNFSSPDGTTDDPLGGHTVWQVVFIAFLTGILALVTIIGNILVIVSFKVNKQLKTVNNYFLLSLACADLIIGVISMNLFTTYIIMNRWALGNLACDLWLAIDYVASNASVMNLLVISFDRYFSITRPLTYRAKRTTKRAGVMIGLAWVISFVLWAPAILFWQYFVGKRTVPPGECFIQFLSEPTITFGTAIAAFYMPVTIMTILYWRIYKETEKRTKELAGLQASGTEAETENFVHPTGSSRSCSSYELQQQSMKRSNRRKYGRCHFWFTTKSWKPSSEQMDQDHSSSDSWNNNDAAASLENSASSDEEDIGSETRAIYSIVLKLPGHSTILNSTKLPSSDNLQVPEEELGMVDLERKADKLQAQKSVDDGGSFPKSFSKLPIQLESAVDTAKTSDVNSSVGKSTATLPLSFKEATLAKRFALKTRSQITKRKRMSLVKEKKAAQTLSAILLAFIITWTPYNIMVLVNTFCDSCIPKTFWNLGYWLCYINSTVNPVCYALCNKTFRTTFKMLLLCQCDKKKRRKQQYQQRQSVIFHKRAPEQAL

| EC50 [1] [µM] | β2 Intrinsic activity [1] | IC50 [2] [µM] | inhibition at 1 µM ([2]; read-out: M3 inhibtion at 1 μM (printed in the M3 pIC50 column)) [%] | SMILES |
| --- | --- | --- | --- | --- |
| 0.00631 | 1 | – | 30 | Cc1nc(C(=O)N2CC(C)(C)OC3(CCN(Cc4cccc(CCNC[C@H](O)c5ccc(O)c6[nH]c(=O)sc56)c4)CC3)C2)cs1 [Example 271, (R)-7-(2-(3-((2,2-Dimethyl-4-(2-methylthiazole-4-carbonyl)-1-oxa-4,9-diazaspiro[5.5]undecan-9-yl)methyl)phenethylamino)-1-hydroxyethyl)-4-hydroxybenzo[d]thiazol-2(3H)-one ditrifluoroacetate] |
| 0.01 | 1 | 0.794 | – | CCc1cc(C(=O)N2CC(C)(C)OC3(CCN(Cc4cccc(CCNC[C@H](O)c5ccc(O)c6[nH]c(=O)ccc56)c4)CC3)C2)cs1 [Example 272, (R)-5-(2-(3-((4-(5-ethylthiophene-3-carbonyl)-2,2-dimethyl-1-oxa-4,9-diazaspiro[5.5]undecan-9-yl)methyl)phenethylamino)-1-hydroxyethyl)-8-hydroxyquinolin-2(1H)-one ditrifluoroacetate] |
| 0.398 | 0.5 | 0.0794 | – | CC(C)c1nc(C(=O)N2CCOC3(CCN(Cc4ccc(C(F)(F)F)c(CCNC[C@H](O)c5ccc(O)c6[nH]c(=O)ccc56)c4)CC3)C2)cs1 [Example 273, (R)-8-Hydroxy-5-(1-hydroxy-2-(5-((4-(2-isopropylthiazole-4-carbonyl)-1-oxa-4,9-diazaspiro[5.5]undecan-9-yl)methyl)-2-(trifluoromethyl)phenethylamino)ethyl)quinolin-2(1H)-one ditrifluoroacetate] |
| 0.0251 | 1.0 | 0.00251 | – | CCC(CC)c1nc(C(=O)N2CCOC3(CCN(Cc4cccc(CCNC[C@H](O)c5ccc(O)c6[nH]c(=O)ccc56)c4)CC3)C2)cs1 [Example 274, (R)-8-Hydroxy-5-(1-hydroxy-2-(3-((4-(2-(pentan-3-yl)thiazole-4-carbonyl)-1-oxa-4,9-diazaspiro[5.5]undecan-9-yl)methyl)phenethylamino)ethyl)quinolin-2(1H)-one ditrifluoroacetate] |
| 0.0501 | 1 | 0.00158 | – | CC(C)c1cc(C(=O)N2CCOC3(CCN(Cc4cccc(CC(C)(C)NC[C@H](O)c5ccc(O)c6[nH]c(=O)ccc56)c4)CC3)C2)cs1 [Example 275, (R)-8-Hydroxy-5-(1-hydroxy-2-(1-(3-((4-(5-isopropylthiophene-3-carbonyl)-1-oxa-4,9-diazaspiro[5.5]undecan-9-yl)methyl)phenyl)-2-methylpropan-2-ylamino)ethyl)quinolin-2(1H)-one ditrifluoroacetate] |
| 0.0398 | 1 | 0.002 | – | CC(C)c1cc(C(=O)N2CCOC3(CCN(Cc4cccc(C[C@@H](C)NC[C@H](O)c5ccc(O)c6[nH]c(=O)ccc56)c4)CC3)C2)cs1 [Example 276, 8-Hydroxy-5-((R)-1-hydroxy-2-((R)-1-(3-((4-(5-isopropylthiophene-3-carbonyl)-1-oxa-4,9-diazaspiro[5.5]undecan-9-yl)methyl)phenyl)propan-2-ylamino)ethyl)quinolin-2(1H)-one ditrifluoroacetate] |
| 0.0316 | 0.9 | 0.0001 | – | Cc1nc(C(=O)N2CCOC3(CCN(Cc4cccc(CCOCCC(=O)N(CCNC[C@H](O)c5ccc(O)c6[nH]c(=O)sc56)C5CCCCC5)c4)CC3)C2)cs1 [Example 277, (R)—N-Cyclohexyl-N-(2-(2-hydroxy-2-(4-hydroxy-2-oxo-2,3-dihydrobenzo[d]thiazol-7-yl)ethylamino)ethyl)-3-(3-((4-(2-methylthiazole-4-carbonyl)-1-oxa-4,9-diazaspiro[5.5]undecan-9-yl)methyl)phenylethoxy)propanamide ditrifluoroacetate] |

More lines, now with the values behind:

| SMILES | EC50 [1] [µM] | β2 Intrinsic activity [1] | IC50 [2] [µM] | inhibition at 1 µM ([2]; read-out: M3 inhibtion at 1 μM (printed in the M3 pIC50 column)) [%] |
| --- | --- | --- | --- | --- |
| O=C(c1csc(-c2ccccc2)n1)N1CCOC2(CCN(CCOc3ccc(CNC[C@H](O)c4ccc(O)c5[nH]c(=O)sc45)cc3)CC2)C1 [Example 112, (R)-4-Hydroxy-7-(1-hydroxy-2-(4-(2-(4-(2-phenylthiazole-4-carbonyl)-1-oxa-4,9-diazaspiro[5.5]undecan-9-yl)ethoxy)benzylamino)ethyl)benzo[d]thiazol-2(3H)-one ditrifluoroacetate] | 0.126 | 0.9 | 0.501 | – |
| O=C(c1csc(-c2ccccc2)n1)N1CCOC2(CCN(CCCCCCCCCNC[C@H](O)c3ccc(O)c4[nH]c(=O)sc34)CC2)C1 [Example 113, (R)-4-Hydroxy-7-(1-hydroxy-2-(9-(4-(2-phenylthiazole-4-carbonyl)-1-oxa-4,9-diazaspiro[5.5]undecan-9-yl)nonylamino)ethyl)benzo[d]thiazol-2(3H)-one formate] | 0.02 | 0.8 | 0.02 | – |
| CC(C)c1ncc(C(=O)N2CCOC3(CCN(CCOc4ccc(CNC[C@H](O)c5ccc(O)c6[nH]c(=O)sc56)cc4)CC3)C2)s1 [Example 114, (R)-4-Hydroxy-7-(1-hydroxy-2-(4-(2-(4-(2-isopropylthiazole-5-carbonyl)-1-oxa-4,9-diazaspiro[5.5]undecan-9-yl)ethoxy)benzylamino)ethyl)benzo[d]thiazol-2(3H)-one ditrifluoracetate] | 0.0631 | 0.9 | 0.316 | – |
| CC(C)c1ncc(C(=O)N2CCOC3(CCN(CCCCCCCCCNC[C@H](O)c4ccc(O)c5[nH]c(=O)sc45)CC3)C2)s1 [Example 115, (R)-4-Hydroxy-7-(1-hydroxy-2-(9-(4-(2-isopropylthiazole-5-carbonyl)-1-oxa-4,9-diazaspiro[5.5]undecan-9-yl)nonylamino)ethyl)benzo[d]thiazol-2(3H)-one formate] | 0.00631 | 0.8 | 0.00794 | – |
| CC(C)c1cc(C(=O)N2CCOC3(CCN(Cc4cc(CCNC[C@H](O)c5ccc(O)c6[nH]c(=O)sc56)cs4)CC3)C2)cs1 [Example 264, (R)-4-Hydroxy-7-(1-hydroxy-2-(2-(5-((4-(5-isopropylthiophene-3-carbonyl)-1-oxa-4,9-diazaspiro[5.5]undecan-9-yl)methyl)thiophen-3-yl)ethylamino)ethyl)benzo[d]thiazol-2(3H)-one ditrifluoroacetate] | 0.02 | 1 | 0.00794 | – |
| CCC(CC)c1nc(C(=O)N2CCOC3(CCN(Cc4cccc(CCNC[C@H](O)c5ccc(O)c6[nH]c(=O)sc56)c4)CC3)C2)cs1 [Example 265, (R)-4-Hydroxy-7-(1-hydroxy-2-(3-((4-(2-(pentan-3-yl)thiazole-4-carbonyl)-1-oxa-4,9-diazaspiro[5.5]undecan-9-yl)methyl)phenethylamino)ethyl)benzo[d]thiazol-2(3H)-one ditrifluoroacetate] | 0.0126 | 1 | 0.000794 | – |
| O=C(c1ccc2occc2c1)N1CCOC2(CCN(Cc3cccc(CCNC[C@H](O)c4ccc(O)c5[nH]c(=O)sc45)c3)CC2)C1 [Example 266, (R)-7-(2-(3-((4-(Benzofuran-5-carbonyl)-1-oxa-4,9-diazaspiro[5.5]undecan-9-yl)methyl)phenethylamino)-1-hydroxyethyl)-4-hydroxybenzo[d]thiazol-2(3H)-one ditrifluoroacetic acid] | 0.00794 | 0.7 | 0.000316 | – |
| CCCc1cc(C(=O)N2CCOC3(CCN(Cc4cccc(CCNC[C@H](O)c5ccc(O)c6[nH]c(=O)sc56)c4)CC3)C2)cs1 [Example 267, (R)-4-Hydroxy-7-(1-hydroxy-2-(3-((4-(5-propylthiophene-3-carbonyl)-1-oxa-4,9-diazaspiro[5.5]undecan-9-yl)methyl)phenethylamino)ethyl)benzo[d]thiazol-2(3H)-one ditrifluoroacetate] | 0.01 | 0.9 | 0.00158 | – |
| CC(C)c1ccc(C(=O)N2CCOC3(CCN(Cc4cccc(CCNC[C@H](O)c5ccc(O)c6[nH]c(=O)sc56)c4)CC3)C2)s1 [Example 268, (R)-4-Hydroxy-7-(1-hydroxy-2-(3-((4-(5-isopropylthiophene-2-carbonyl)-1-oxa-4,9-diazaspiro[5.5]undecan-9-yl)methyl)phenethylamino)ethyl)benzo[d]thiazol-2(3H)-one ditrifluoroacetate] | 0.01 | 1 | 0.00158 | – |
| CC(C)c1nc(C(=O)N2CCOC3(CCN(CCOc4ccc(CCNC[C@H](O)c5ccc(O)c6[nH]c(=O)sc56)c(F)c4F)CC3)C2)cs1 [Example 269, (R)-7-(2-(2,3-Difluoro-4-(2-(4-(2-isopropylthiazole-4-carbonyl)-1-oxa-4,9-diazaspiro[5.5]undecan-9-yl)ethoxy)phenethylamino)-1-hydroxyethyl)-4-hydroxybenzo[d]thiazol-2(3H)-one ditrifluoroacetate] | 0.0316 | 1.1 | 0.00631 | – |
| CC(C)c1nc(C(=O)N2CCOC3(CCN(Cc4ccc(C(F)(F)F)c(CCNC[C@H](O)c5ccc(O)c6[nH]c(=O)sc56)c4)CC3)C2)cs1 [Example 270, (R)-4-Hydroxy-7-(1-hydroxy-2-(5-((4-(2-isopropylthiazole-4-carbonyl)-1-oxa-4,9-diazaspiro[5.5]undecan-9-yl)methyl)-2-(trifluoromethyl)phenethylamino)ethyl)benzo[d]thiazol-2(3H)-one ditrifluoroacetate] | 0.251 | 0.7 | 0.0794 | – |
